Assay results taken from US6949544B2, “Inhibitors of c-Jun N-terminal kinases (JNK) and other protein kinases” (Vertex Pharmaceuticals Incorporated, priority 2001, dated 2005).
pKi: −log10 of the molar value.

What was measured:
Assay type in all cases: biochemical
[1] = target: T1, Lck kinase purified from bovine thymus (Bos taurus, UniProt Q3ZCM0); test: Lck inhibition assay (33P incorporation into poly Glu-Tyr); details: 10 μM ATP; read-out: Activity in the Lck Inhibition Assay (Ki rating A-C)
T1 construct: Lck kinase purified from bovine thymus; purchased Upstate Biotechnology 14-106; host or cells: bovine thymus (tissue-purified)
T1 sequence (Q3ZCM0 1-509): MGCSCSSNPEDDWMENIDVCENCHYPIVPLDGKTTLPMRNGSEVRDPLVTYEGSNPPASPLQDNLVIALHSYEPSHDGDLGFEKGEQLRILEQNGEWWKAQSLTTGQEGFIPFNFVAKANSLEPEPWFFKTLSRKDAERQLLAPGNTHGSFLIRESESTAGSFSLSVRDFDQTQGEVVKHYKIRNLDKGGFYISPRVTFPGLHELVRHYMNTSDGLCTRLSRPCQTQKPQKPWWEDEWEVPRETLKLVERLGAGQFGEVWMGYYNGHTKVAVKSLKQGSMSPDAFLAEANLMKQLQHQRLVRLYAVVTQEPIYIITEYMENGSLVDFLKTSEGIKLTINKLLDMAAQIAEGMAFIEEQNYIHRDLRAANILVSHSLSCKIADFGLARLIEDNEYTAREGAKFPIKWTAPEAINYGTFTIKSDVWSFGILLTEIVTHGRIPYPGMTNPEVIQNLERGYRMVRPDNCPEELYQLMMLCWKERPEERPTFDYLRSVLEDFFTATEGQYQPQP
Protocol: The compounds were assayed as inhibitors of Lck kinase purified from bovine thymus (from Upstate Biotechnology, cat. no. 14-106). Lck kinase activity was monitored by following the incorporation of ^33P from ATP into the tyrosine of a random poly Glu-Tyr polymer substrate of composition, Glu:Tyr=4:1 (Sigma, cat. no. P-0275). The following were the final concentrations of the assay components: 0.05 M HEPES, pH 7.6, 10 mM MgCl2, 2 mM DTT, 0.25 mg/ml BSA, 10 μM ATP (1-2 μCi ^33P-ATP per reaction), 5 mg/ml poly Glu-Tyr, and 1-2 units of lck kinase. In a typical assay, all the reaction components with the exception of ATP were pre-mixed and aliquoted into assay plate wells. […] The assay plate was incubated at 30° C. for 10 min before initiating the reaction with ^33P-ATP. After 20 min of reaction, the reactions were quenched with 150 μl of 10% trichloroacetic acid (TCA) containing 20 mM Na3PO4. The quenched samples were then transferred to a 96-well filter plate (Whatman, UNI-Filter GF/F Glass Fiber Filter, cat no. 7700-3310) installed on a filter plate vacuum manifold. Filter plates were washed four times with 10% TCA containing 20 mM Na3PO4 and then 4 times with methanol. 200 μl of scintillation fluid was then added to each well. The plates were sealed and the amount of radioactivity associated with the filters was quantified on a TopCount scintillation counter.

[2] = target: Glycogen Synthase Kinase 3 (GSK-3) (Homo sapiens, UniProt P49841); test: GSK-3 inhibition assay (standard coupled enzyme assay); details: 60 nM GSK-3, 10 μM ATP; read-out: GSK-3 Inhibitory Activity (Ki rating A-C)
Glycogen Synthase Kinase 3 (GSK-3), sequence (P49841 whole entry): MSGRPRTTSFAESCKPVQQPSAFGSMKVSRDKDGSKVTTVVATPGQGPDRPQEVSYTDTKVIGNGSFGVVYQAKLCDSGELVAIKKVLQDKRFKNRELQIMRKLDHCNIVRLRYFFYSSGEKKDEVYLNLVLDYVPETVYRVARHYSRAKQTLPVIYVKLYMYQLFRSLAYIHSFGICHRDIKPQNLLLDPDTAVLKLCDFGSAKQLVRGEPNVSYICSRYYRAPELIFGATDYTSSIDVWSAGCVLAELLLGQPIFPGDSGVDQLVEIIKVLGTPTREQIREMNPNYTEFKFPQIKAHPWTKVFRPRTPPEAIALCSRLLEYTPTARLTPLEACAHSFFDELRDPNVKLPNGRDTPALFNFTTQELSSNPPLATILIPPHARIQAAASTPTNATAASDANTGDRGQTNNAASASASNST
Protocol: Compounds were screened in the following manner for their ability to inhibit Glycogen Synthase Kinase 3 (GSK-3) using a standard coupled enzyme assay (Fox et al (1998) Protein Sci 7, 2249). To an assay stock buffer solution containing 0.1M HEPES 7.5, 10 mM MgCl2, 25 mM NaCl, 2.5 mM phosphoenolpyruvate, 300 μM NADH, 1 mM DTT, 30 μg/mL pyruvate kinase, 10 μg/mL lactate dehydrogenase, 300 μM peptide (HSSPHQp-SEDEEE, American Peptide, Sunnyvale, Calif.), and 60 nM GSK-3, was added a 30 μM solution of the compound in DMSO and the resulting mixture incubated at 30° C. for 5 min. The reaction was initiated by the addition of 10 μM ATP. The rates of reaction were obtained by monitoring absorbance at 340 nm over a 5 minute read time at 30° C. using a Molecular Devices plate reader (Sunnyvale, Calif.). The IC50 was determined from the rate data as a function of inhibitor concentration.

[3] = target: T2, activated JNK3 (Homo sapiens, UniProt P53779); test: JNK inhibition assay (spectrophotometric coupled-enzyme assay); details: for pKi: 10 nM activated JNK3, 10 μM ATP, read-out: Activity in the JNK3 Inhibition Assay (Ki rating A-C)
T2 construct: One such construct encodes amino acid residues Ser40-Glu402 of JNK3α1 and is preceded by Met and Gly residues; Met-Gly (initiator methionine and added glycine) (N); made in house; host or cells: E. coli BL21 (DE3)
T2 sequence (P53779 40-402): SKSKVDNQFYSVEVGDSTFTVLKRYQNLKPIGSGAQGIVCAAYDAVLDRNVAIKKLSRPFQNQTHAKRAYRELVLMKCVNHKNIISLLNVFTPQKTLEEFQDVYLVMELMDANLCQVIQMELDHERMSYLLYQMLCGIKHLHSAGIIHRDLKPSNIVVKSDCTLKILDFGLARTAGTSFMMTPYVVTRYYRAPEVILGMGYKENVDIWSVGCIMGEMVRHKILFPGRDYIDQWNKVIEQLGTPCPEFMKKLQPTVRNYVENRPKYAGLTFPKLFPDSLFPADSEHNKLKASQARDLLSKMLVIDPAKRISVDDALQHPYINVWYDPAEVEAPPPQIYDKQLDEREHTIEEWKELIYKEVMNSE
Excerpt: A BLAST search of the EST database using the published JNK3α1 cDNA as a query identified an EST clone (#632588) that contained the entire coding sequence for human JNK3α1. Polymerase chain reactions (PCR) using pfu polymerase (Strategene) were used to introduce restriction sites into the cDNA for cloning into the pET-15B expression vector at the NcoI and BamHI sites. The protein was expressed in E. coli. […] This truncation corresponds to Ser 2 of JNK1 and JNK2 proteins, and is preceded by a methionine (initiation) and a glycine residue. The glycine residue was added in order to introduce an NcoI site for cloning into the expression vector. In addition, systematic C-terminal truncations were performed by PCR to identify a construct that give rise to diffraction-quality crystals.
5 mg of JNK3 was diluted to 0.5 mg/ml in 50 mM HEPES buffer, pH 7.5, containing 100 mM NaCl, 5 mM DTT, 20 mM MgCl2 and 1 mM ATP. GST-MKK7(DD) was added at a molar ratio of 1:2.5 GST-MKK7:JNK3. After incubation for 30 minutes at 25° C., the reaction mixture was concentrated 5-fold by ultrafiltration in a Centriprep-30 (Amicon, Beverly, Mass.), diluted to 10 ml and an additional 1 mM ATP added. This procedure was repeated three times to remove ADP and replenish ATP. The final addition of ATP was 5 mM and the mixture incubated overnight at 4° C.
The activated JNK3/GST-MKK7(DD) reaction mixture was exchanged into 50 mM HEPES buffer, pH 7.5, containing 5 mM DTT and 5% glycerol (w/v) by dialysis or ultrafiltration. The reaction mixture was adjusted to 1.1 M potassium phosphate, pH 7.5, and purified by hydrophobic interaction chromatography (at 25° C.) using a Rainin Hydropore column. […] Activated JNK3 (i.e. doubly phosphorylated JNK3) was stored at −70° C. at 0.25-1 mg/ml.
Compounds were assayed for the inhibition of JNK3 by a spectrophotometric coupled-enzyme assay. In this assay, a fixed concentration of activated JNK3 (10 nM) was incubated with various concentrations of a potential inhibitor dissolved in DMSO for 10 minutes at 30° C. in a buffer containing 0.1 M HEPES buffer, pH 7.5, containing 10 mM MgCl2, 2.5 mM phosphoenolpyruvate, 200 μM NADH, 150 μg/mL pyruvate kinase, 50 μg/mL lactate dehydrogenase, and 200 μM EGF receptor peptide. […] The reaction was initiated by the addition of 10 μM ATP and the assay plate is inserted into the spectrophotometer's assay plate compartment that was maintained at 30° C. The decrease of absorbance at 340 nm was monitored as a function of time. The rate data as a function of inhibitor concentration was fitted to competitive inhibition kinetic model to determine the Ki.

[4] = target: CDK-2/Cyclin A (Homo sapiens, UniProt P24941); test: CDK2 inhibition assay (standard coupled enzyme assay); details: 25 nM CDK-2/Cyclin A; read-out: CDK2 Inhibitory Activity (Ki rating A-C)
Protocol: Compounds were screened in the following manner for their ability to inhibit CDK2 using a standard coupled enzyme assay (Fox et al (1998) Protein Sci 7, 2249).
To an assay stock buffer solution containing 0.1M HEPES 7.5, 10 mM MgCl2, 1 mM DTT, 25 mM NaCl, 2.5 mM phosphoenolpyruvate, […], […], […], […], and 100 μM peptide ([…], American Peptide, Sunnyvale, Calif.) was added a DMSO solution of a compound of the present invention to a final concentration of 30 μM. The resulting mixture was incubated at 30° C. for 10 minutes.
The reaction was initiated by the addition of 10 μL of CDK-2/Cyclin A stock solution to give a final concentration of 25 nM in the assay. The rates of reaction were obtained by monitoring absorbance at 340 nm over a 5-minute read time at 30° C. using a BioRad Ultramark plate reader (Hercules, Calif.). The Ki values were determined from the rate data as a function of inhibitor concentration.

| Structure (SMILES) | pKi [1] | pKi [2] | pKi [3] | pKi [4] | Activity in the JNK3 Inhibition Assay (percent inhibition rating D-F) ([3]; at a 2 μM inhibitor concentration) |
| --- | --- | --- | --- | --- | --- |
| COc1cc(-c2ccnc(Nc3cccc(Cl)c3)n2)cc(OC)c1OCCN1CCOCC1 [Compound I-39, (3-Chlorophenyl)-(4[3,5-dimethoxy-4-(2-morpholin-4-yl-ethoxy)phenyl]pyrimidin-2-yl)-amine] |  | 6.00 to 7.00 | > 7.00 | < 5.30 |  |
| COc1ccc(-c2ccnc(Nc3cc(-c4cccc(O)c4)ccc3C)n2)c(OC)c1OC [II-47] | 6.00 to 7.00 | 6.00 to 7.00 |  | < 5.30 |  |
| COc1ccc(-c2ccccc2)cc1Nc1nccc(-c2ccc(OC)c(OC)c2OC)n1 [II-48] | 6.00 to 7.00 | 6.00 to 7.00 |  | < 5.30 |  |
| COc1ccc(-c2ccnc(Nc3cc(-c4cccc(F)c4)ccc3C)n2)c(OC)c1OC [II-45] | 6.00 to 7.00 | < 6.00 |  | < 5.30 |  |
| COc1cc(-c2ccnc(Nc3nc4ccccc4[nH]3)n2)cc(OC)c1OC [Compound I-65] |  | > 7.00 |  | < 5.30 | D (percent inhibition less than or equal to 33%) |
| COc1ccc(Nc2nccc(-c3cc(OC)c(OC)c(OC)c3)n2)cc1Cl [Compound I-35] |  | > 7.00 | > 7.00 | < 5.30 |  |
| COc1ccc(Nc2nccc(-c3ccc(OC)c(OC)c3OC)n2)cc1[N+](=O)[O-] [II-71] | 6.00 to 7.00 | < 6.00 |  | < 5.30 |  |
| COc1cccc(Nc2nccc(-c3cc(Cl)c(OC)c(Cl)c3)n2)c1 [Compound I-51] |  | 6.00 to 7.00 | > 7.00 | < 5.30 |  |
| COc1cc(-c2ccnc(Nc3ccccc3F)n2)cc(OC)c1OC [Compound I-5] |  | < 6.00 | 6.00 to 7.00 | < 5.30 |  |
| COc1c(Cl)cc(-c2ccnc(Nc3cccc(Cl)c3)n2)cc1Cl [Compound I-41] |  | 6.00 to 7.00 | 6.00 to 7.00 | < 5.30 |  |
| COc1cccc(Nc2nccc(-c3cc(C)c(OC)c(C)c3)n2)c1 [Compound I-52] |  | 6.00 to 7.00 | > 7.00 |  |  |
| COc1cc(-c2ccnc(Nc3cc(F)c(F)c(F)c3)n2)cc(OC)c1OC [Compound I-22] |  | < 6.00 | > 7.00 | < 5.30 |  |
| COc1ccc(-c2ccnc(Nc3cccc(Oc4cccc([N+](=O)[O-])c4)c3)n2)c(OC)c1OC [II-25] | > 7.00 | > 7.00 |  |  |  |
| COc1cc(-c2ccnc(Nc3cccc(OCc4ccccc4)c3)n2)cc(OC)c1OC [Compound I-38] |  | > 7.00 | > 7.00 | < 5.30 |  |

Now from value to compound, other results behind:

| pKi [1] | pKi [2] | pKi [3] | pKi [4] | Structure (SMILES) | Activity in the JNK3 Inhibition Assay (percent inhibition rating D-F) ([3]; at a 2 μM inhibitor concentration) |
| --- | --- | --- | --- | --- | --- |
| > 7.00 | > 7.00 |  |  | COc1ccc(-c2ccnc(Nc3cccc(Oc4cccc(N)c4)c3)n2)c(OC)c1OC [II-26] |  |
|  | 6.00 to 7.00 | 6.00 to 7.00 | < 5.30 | COc1cc(-c2ccnc(Nc3nc(C)cs3)n2)cc(OC)c1OC [Compound I-10] |  |
|  | < 6.00 | < 6.00 |  | COc1cc(-c2ccnc(NCc3ccccc3)n2)cc(OC)c1OC [Compound I-37] |  |
|  | < 6.00 | > 7.00 | < 5.30 | COc1c(C)cc(-c2ccnc(Nc3cccc(Cl)c3)n2)cc1C [Compound I-42] |  |
| < 6.00 | < 6.00 |  | < 5.30 | COc1ccc(Nc2nccc(-c3ccc(OC)c(OC)c3OC)n2)cc1N [II-72] |  |
| < 6.00 | < 6.00 | < 6.00 |  | COc1cccc(Nc2ncnc(Nc3nccc(-c4ccc(OC)c(OC)c4OC)n3)n2)c1 [II-33] |  |
| > 7.00 | 6.00 to 7.00 |  | < 5.30 | CCOc1ccc(Oc2cc(Nc3nccc(-c4ccc(OC)c(OC)c4OC)n3)ccc2OC)cc1 [II-76] |  |
|  | 6.00 to 7.00 | 6.00 to 7.00 | < 5.30 | COc1c(Br)cc(-c2ccnc(Nc3cccc(Cl)c3)n2)cc1Br [Compound I-43] |  |
| 6.00 to 7.00 | < 6.00 |  | < 5.30 | COc1ccc(-c2ccnc(Nc3cc(-c4cccc(N)c4)ccc3C)n2)c(OC)c1OC [II-46] |  |
|  | 6.00 to 7.00 | > 7.00 | < 5.30 | COc1cccc(Nc2nccc(-c3cc(OC)c(OCCN4CCOCC4)c(OC)c3)n2)c1 [Compound I-49] |  |
|  | 6.00 to 7.00 | > 7.00 | < 5.30 | COc1cc(-c2ccnc(Nc3ccc(Cl)cc3)n2)cc(OC)c1OC [Compound I-9] |  |
| < 6.00 | 6.00 to 7.00 | > 7.00 |  | COc1ccc(-c2ccnc(Nc3ncnc(Nc4ccccc4)n3)n2)c(OC)c1OC [II-32] |  |
|  | > 7.00 | > 7.00 | < 5.30 | COc1cc(-c2ccnc(Nc3cccc(Cl)c3)n2)cc(OC)c1OC [Compound I-18] |  |
| 6.00 to 7.00 | 6.00 to 7.00 |  | < 5.30 | COc1ccc(Nc2nccc(-c3ccc(OC)c(OC)c3OC)n2)cc1O [II-70] |  |
|  | < 6.00 | 6.00 to 7.00 |  | COc1cc(-c2ccnc(Nc3cc(C)n[nH]3)n2)cc(OC)c1OC [Compound I-88] |  |
|  | 6.00 to 7.00 | > 7.00 | < 5.30 | COc1cccc(Nc2nccc(-c3cc(OC)c(OC)c(OC)c3)n2)c1 [Compound I-20] |  |
| < 6.00 | < 6.00 |  |  | COc1c(-c2ccnc(Nc3cccc(OCc4ccccc4)c3)n2)ccc2c1OCCO2 [II-18] |  |
